Reference: patent US20160324992A1, “IDENTIFICATION AND TREATMENT OF VULNERABLE PLAQUES” (OTTAWA HEART INSTITUTE RESEARCH CORPORATION, priority 2015, published 2016)
Like-named read-outs stand apart in the source and are kept apart here. Residues, ends and D or L forms follow the SMILES beside them. *: point of attachment. Cbz = O=C(OCc1ccccc1)*; CH2F = FC*

Assays:
[1] = test system: bone-marrow-derived macrophages (BMDMs); assay type: cell-based; conditions: BMDMs
Experimental: (§1) Bone-marrow derived macrophages. Bone-marrow derived macrophages (BMDMs) were isolated from femurs of adult VVT or Rip3^−/− mice and differentiated into macrophages using DMEM supplemented with 10% FBS and 1% penicillin-streptomycin plus either 20% L929 conditioned media or 20 ng/mL mouse M-CSF for 7-10 days. To polarize macrophages to M1 or M2, BMDMs were incubated on day 7 with 1 μg/mL LPS and 100 ng/mL IFNγ or 10 ng/mL IL-4 respectively for 24 h. Damage Associated Molecular Patterns (DAMPs) were obtained by subjecting BMDMs to 3×30 min freeze-thaw cycle or treatment with 100 ng/mL LPS and 50 μM zVAD.fmk for 24 hours, after which the media was collected and added to naïve cells at indicated ratios.
(§2) Cell viability assays. Cell death was determined by measuring lactate dehydrogenase (LDH) release into the media. Briefly, cells were treated with 100 μg/ml oxLDL in the presence or absence of 25 μM zVAD.fmk or 50 μM necrostatin-1 (Nec-1) for 24 hours and media was collected and centrifuged to pellet cell debris. The amount of LDH in media was measured in a kinetic assay by adding PBS containing 0.02% NADH and 0.03% sodium pyruvate and measuring absorbance at 340 nm for 10 minutes at 1 minute intervals. The slope of the curve provides a measure of cell death, which was expressed as fold change relative to control.
as §1, with “Rip3−/−” for “Rip3^−/−”
as §2, with “ug/ml” for “μg/ml”, “uM” for “μM”

[2] = test system: FADD-deficient variant of human Jurkat T cells treated with TNF-α; conditions: SAR study of Teng et al. 2005, relative to Nec-1; cited from earlier work
[3] = test system: atherosclerotic lesions in ApoE−/− mice; test: Ex vivo autoradiography of aorta, en face and Oil Red O comparison; assay type: in vivo, mouse; conditions: ApoE−/− mice, ˜1 mCi of tracer, 2 hr post injection
Description: Radiochemistry and ex vivo autoradiography study with ApoE^−/− mice. The tracer ^123I-Nec-1 (7-^123I-Nec-1) was synthesized by a Cu(I) catalyzed direct halogen exchange reaction with the precursor 7-Br-Nec-1 and Na^123I. Eight week-old female apolipoprotein E knockout (Apo E^−/−) mice were purchased from Charles River Laboratories and fed either a chow or western diet (TD.10885, Harlan Laboratories) for 2 months (total n=6 mice). 7-^123I-O-Nec-1 (37.0-55.5 MBq) was administrated intravenously into the mice under anesthetic. After 2 hr, the mice were euthanized and perfused with PBS followed by 10% formalin via left ventricle cannulation. Aorta was dissected from heart at the base using a dissecting microscope following removal of surrounding fat and connective tissue. En face specimens were immediately exposed to super resolution phosphor screens in an autoradiography cassette. After overnight exposure at room temperature, the screens were scanned with a Cyclone Phosphor Imager (Perkin Elmer, Downers Grove, Ill.). Images were analyzed using OptiQuant™ 5.0 software. The regions of interest (ROI) were drawn around the lesions on the aortic arch, and the counts in Digital Light Unit (DLU) and surface areas in mm^2 were measured. The DLU was converted to activity in μCi using a set of calibration standards with known activities, which were exposed and scanned on the same screen used for the aorta samples, as previously described (Zhao et al, 2007; Matter et al., 2006). The percentage injected dose (% ID) was calculated from dividing the activity (pCi) of the lesion by the injected activity. Activity density in % ID/m^2 was calculated and normalized by animal body weight to get % ID×kg/m^2. The areas of the lesions and the whole aortic arch in mm^2 were also recorded using the OptiQuant™ 5.0 software, and the percentage of lesion within the area of the aorta vessel wall was calculated.
Ex vivo autoradiography study with ApoE^−/− mice. Eight week-old female apolipoprotein E knockout (Apo E^−/−) mice were purchased from Charles River Laboratories (Charles River, Canada) and fed either a chow or western diet (TD.10885, Harlan Laboratories) for 2 months (n=3 per group). […] 7-^123I-O-Nec-1 (37.0-55.5 MBq) was administrated intravenously into the mice under anesthetic. After 2 hr, the mice were euthanized in a CO2 chamber. Using a Gilson Minipuls 2 peristaltic pump, the mice were perfused with 20 mL phosphate buffered saline (PBS) followed by 10 mL of 10% formalin via left ventricle cannulation. Perfusate was drained from a cut within the right atrium. Aorta was dissected from heart at the base using a dissecting microscope following removal of surrounding fat and connective tissue. For en face experiments aortic tissues were flattened by a longitudinal cut through one side of the aortic wall cutting through the carotids and the innominant artery until the aorta was split forming a Y-shaped structure.
The uptake and distribution of the tracer on aortic tissue was studied using digital autoradiography method. En face specimens were immediately exposed to super resolution phosphor screens in a Fisher Biotech autoradiography cassette. After overnight exposure at room temperature, the screens were scanned with a Cyclone Phosphor Imager (Perkin Elmer, Downers Grove, Ill.). Images were analyzed using OptiQuant™ 5.0 software. The regions of interest (ROI) were drawn around the lesions on the aortic arch, and the counts in Digital Light Unit (DLU) and surface areas in mm^2 were measured. The DLU was converted to activity in pCi using a set of calibration standards with known activities, which were exposed and scanned on the same screen used for the aorta samples. The percentage injected dose (% ID) was calculated from dividing the activity (pCi) of the lesion by the injected activity. Activity density in % ID/m^2 was calculated and normalized by animal body weight to get % ID×kg/m^2. […]

[4] = test system: ApoE−/− mice with established atherosclerosis; test: Atherosclerosis study: time-release pellets in Western diet fed ApoE−/− mice; assay type: in vivo, mouse
Experimental: Atherosclerosis Studies. All animal experiments were performed in accordance with the Animal Care and Use Committee, University of Ottawa, Canada. Eight week old Apo E^−/− mice (total n=17 mice) were fed an adjusted calories diet (21% fat; 0.2% cholesterol, Harlan Teklad) for 4 weeks to induce atherosclerotic progression. Mice were then injected with time-release placebo or Nec-1s tablets (2 mg/kg/day), which were synthesized by Innovative Research of America, USA. Mice were euthanized after 6 weeks of treatment, perfused with saline and aortic roots were embedded in OCT medium and frozen. Aortic roots were sectioned (10 μm) and stained with hematoxylin and eosin for lesion area and necrotic core quantification, and a minimum of 10 sections per animal were measured across the length of the entire aortic root. For en face aortic lesion quantifications, aortas were dissected removing all branching vessels down to the femoral bifurcation and then sliced ventrally and images of aortas were digitally captured using ImagePro™. Lesion areas within the entire length of the aorta were quantified using Image J™ and expressed relative to the total aortic surface area. Immunohistochemistry for vascular smooth muscle cells was performed using a primary antibody for a-smooth muscle actin (monoclonal, Sigma) conjugated to alkaline phosphatase and visualized using SigmaFAST Red (Sigma). Statistical significance between the two groups were analyzed using Students' t-test (p<0.05).
Atherosclerosis Studies. All animal experiments were performed in accordance with the Animal Care and Use Committee, University of Ottawa, Canada. Eight week old apoE−/− mice (total n=17 mice) were fed an adjusted calories diet (21% fat; 0.2% cholesterol, Harlan Teklad) for 4 weeks to induce atherosclerotic progression. Mice were then injected with time-release placebo or stable Necrostatin-1 (Nec-1)15 tablets (2 mg/kg/day), which were synthesized by Innovative Research of America, USA. Mice were euthanized after 6 weeks of treatment, perfused with saline and aortic roots were embedded in OCT medium and frozen. Aortic roots were sectioned (10 μm) and stained with hematoxylin and eosin for lesion area and necrotic core quantification, and a minimum of 10 sections per animal were measured across the length of the entire aortic root. For en face aortic lesion quantifications, aortas were dissected removing all branching vessels down to the femoral bifurcation and then sliced ventrally and images of aortas were digitally captured using ImageProTM. Lesion areas within the entire length of the aorta were quantified using Image JTM and expressed relative to the total aortic surface area. Immunohistochemistry to visualize macrophages and smooth muscle cells was performed using primary antibodies to CD68 (rat monoclonal, Serotec) or phosho-MLKL (rabbit polyclonal, Abcam) with a secondary conjugated to biotin and α-smooth muscle actin (monoclonal, Sigma) conjugated to alkaline phosphatase and visualized using DAB or SigmaFAST Red (Sigma), respectively. Image J was used to quantify positive staining area and statistical significance between the two groups were analyzed using Students' t-test (p<0.05)

## COC(=O)C[C@H](NC(=O)[C@H](C)NC(=O)[C@@H](NC(=O)OCc1ccccc1)C(C)C)C(=O)CF [zVAD.fmk] (Cbz-Val-Ala-Asp(OMe)-CH2F)
[1]; 100 μg/mL oxLDL + 25 μM zVAD.fmk, 24 h, mean±SEM
  cell death (LDH release), fold change relative to control: 5.7±0.7 fold
[1]; oxLDL + pan caspase inhibitor zVAD.fmk 25 μM, 24 h
  effect on cell death in response to oxLDL (in words): significantly enhanced cell death

## CN1C(=O)C(Cc2c[nH]c3c(Cl)cccc23)NC1=S (centres unmarked) [7-Cl-Nec-1]
[2]
  necroptosis inhibitory activity (in words): increased activity

## O=C1NC(=S)NC1Cc1c[nH]c2ccccc12 (centres unmarked) [Nec-1i]
[2]
  necroptosis inhibitory activity (in words): completely abolished

## COC(=O)C[C@H](NC(=O)[C@H](C)NC(=O)[C@@H](NC(=O)[C@H](Cc1ccc(O)cc1)NC(=O)OCc1ccccc1)C(C)C)C(=O)CF [zYVAD.fmk]
[1]; co-treatment with caspase-1 inhibitor zYVAD.fmk 20 uM
  effect on cell death in response to oxLDL (in words): did not reduce or prevent cell death

## COc1ccc([C@@H]2[C@@H]3CCc4ccc([123I])cc4C3=NN2C(C)=O)cc1 [8-^123I-Nec-3R]
[3]
  uptake in atherosclerotic lesions by autoradiography (in words): significant lesion uptake

## CN1C(=O)NC(Cc2c[nH]c3c(Cl)cccc23)C1=O (centres unmarked) [Nec-1s]
[4]; Western diet 4 weeks then 2 mg/kg/day for 6 weeks
  atherosclerotic lesion area versus placebo (in words): reduced en face lesion areas
[4]; aortic sinus, 2 mg/kg/day, 6 weeks
  reduction of lesion necrotic core area compared to placebo: 62%
